Assay results published in paper PMC5590106 (Biochemical and biophysical research communications, 2017).

How the values were obtained:
Type in all cases: biochemical
[1] = target: T1, purified C. elegans CED-3 (Caenorhabditis elegans, UniProt P42573); assay: CED-3 fluorogenic assay; conditions: for Purified CED-3 Hill Slope Value: determined by XLfit in ActivityBase
T1 sequence (P42573 221-374 limits assumed): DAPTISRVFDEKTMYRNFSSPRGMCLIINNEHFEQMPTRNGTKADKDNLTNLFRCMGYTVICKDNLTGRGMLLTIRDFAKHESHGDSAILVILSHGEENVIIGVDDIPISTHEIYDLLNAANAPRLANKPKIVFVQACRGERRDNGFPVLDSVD
T1 sequence (P42573 389-503 limits assumed): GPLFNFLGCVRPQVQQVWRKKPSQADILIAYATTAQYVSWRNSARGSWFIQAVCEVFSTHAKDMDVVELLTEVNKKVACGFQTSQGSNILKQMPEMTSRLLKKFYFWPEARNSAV

[2] = target: T2, C. elegans CED-3 (crude lysate, CED-3L) (Caenorhabditis elegans, UniProt P42573); assay: CED-3 fluorogenic assay
T2 sequence (P42573 221-374 limits assumed): T1 sequence (P42573 221-374 limits assumed)
T2 sequence (P42573 389-503 limits assumed): T1 sequence (P42573 389-503 limits assumed)

Human Caspase 3 (HCASP3) = target: T3, Human Caspase 3 (HCASP3) (Homo sapiens, UniProt P42574); assay: Human caspase-3 fluorogenic assay
T3 sequence (P42574 29-175 limits assumed): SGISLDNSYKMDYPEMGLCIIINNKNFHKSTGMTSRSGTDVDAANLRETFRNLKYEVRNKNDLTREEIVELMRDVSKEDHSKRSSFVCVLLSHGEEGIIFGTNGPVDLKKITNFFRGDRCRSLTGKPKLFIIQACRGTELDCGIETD
T3 sequence (P42574 176-277 limits assumed): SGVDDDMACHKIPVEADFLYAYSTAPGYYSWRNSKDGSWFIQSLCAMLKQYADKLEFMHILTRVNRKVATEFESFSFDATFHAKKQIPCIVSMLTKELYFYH

Compound | IC50 [1] | IC50 [2] | Purified CED-3 Hill Slope Value [1] | further results
CC(=O)N[C@@H](CC(=O)O)C(=O)N[C@@H](CCC(=O)O)C(=O)N[C@H](C(=O)N[C@H](C=O)CC(=O)O)C(C)C [Ac-DEVD-CHO, reference compound] | 0.0027 µM | 0.0019 µM |  | calculated Hill slope on CED-3L ([2]; crude lysate, Fig. 1A): −0.994
O=C(/C=C/c1ccccc1)NNC1=NS(=O)(=O)c2ccccc21 [BAS01847186] |  |  |  | potency on HCASP3 compared to CED-3 (Human Caspase 3 (HCASP3)): as potent or more so on HCASP3
CCCOC(=O)/C(=C\C=C\c1ccco1)NC(=O)c1ccccc1 [BAS 00187854] | 14.6 µM | 34.7 µM | 1.27 | 
CC(=O)c1ccc(-c2ccc(/C=C3/SC(=S)NC3=O)o2)cc1 [BAS 00253468] | 9 µM | 21 µM | 1.79 | 
COc1ccc(N2C(=O)/C(=C/c3ccco3)C(=O)NC2=S)cc1 [BAS 00519146] |  |  | 1.6 | IC50 (Human Caspase 3 (HCASP3); read-out: IC50 HCASP-3, purified HCASP3, Fig. 3C): 10.8 µM
O=C(/C=C/c1ccco1)c1ccc(NC(=O)c2cccs2)cc1 [BAS 00835000] | 4.9 µM | 30 µM | 1.38 | 
O=C1NC(=S)N(c2ccc(F)cc2)C(=O)/C1=C/c1ccco1 [BAS 01202237] |  |  | 1.5 | 
Nc1ccc(N2Cc3ccccc3C2)cc1 [BAS 01988614] | 13.6 µM | 43.1 µM | 0.62 | 
O=c1cc2oc3cc(O)c(O)cc3c(-c3ccccn3)c-2cc1O [BAS 05223612] | 3.9 µM | 24.5 µM | 1.7 | inhibition of CED-3 (in words) [1]: inhibited; inhibition of HCASP3 (in words) (Human Caspase 3 (HCASP3); dose-response, at the concentrations tested): inhibited
